Marks after values point to notes of the source that are not given here.
What follows are compounds tested against hERG (human ether-a-go-go-related gene) potassium channel (Homo sapiens, UniProt Q12809) (assay: QPatch automated patch-clamp hERG activator 4-concentration EC50 assay). Conditions: increase of hERG tail current amplitude at 7 second (TL7); 3.3 uM (footnote *); hERG stably expressed in CHO cells.
hERG (human ether-a-go-go-related gene) potassium channel, sequence (Q12809 whole entry): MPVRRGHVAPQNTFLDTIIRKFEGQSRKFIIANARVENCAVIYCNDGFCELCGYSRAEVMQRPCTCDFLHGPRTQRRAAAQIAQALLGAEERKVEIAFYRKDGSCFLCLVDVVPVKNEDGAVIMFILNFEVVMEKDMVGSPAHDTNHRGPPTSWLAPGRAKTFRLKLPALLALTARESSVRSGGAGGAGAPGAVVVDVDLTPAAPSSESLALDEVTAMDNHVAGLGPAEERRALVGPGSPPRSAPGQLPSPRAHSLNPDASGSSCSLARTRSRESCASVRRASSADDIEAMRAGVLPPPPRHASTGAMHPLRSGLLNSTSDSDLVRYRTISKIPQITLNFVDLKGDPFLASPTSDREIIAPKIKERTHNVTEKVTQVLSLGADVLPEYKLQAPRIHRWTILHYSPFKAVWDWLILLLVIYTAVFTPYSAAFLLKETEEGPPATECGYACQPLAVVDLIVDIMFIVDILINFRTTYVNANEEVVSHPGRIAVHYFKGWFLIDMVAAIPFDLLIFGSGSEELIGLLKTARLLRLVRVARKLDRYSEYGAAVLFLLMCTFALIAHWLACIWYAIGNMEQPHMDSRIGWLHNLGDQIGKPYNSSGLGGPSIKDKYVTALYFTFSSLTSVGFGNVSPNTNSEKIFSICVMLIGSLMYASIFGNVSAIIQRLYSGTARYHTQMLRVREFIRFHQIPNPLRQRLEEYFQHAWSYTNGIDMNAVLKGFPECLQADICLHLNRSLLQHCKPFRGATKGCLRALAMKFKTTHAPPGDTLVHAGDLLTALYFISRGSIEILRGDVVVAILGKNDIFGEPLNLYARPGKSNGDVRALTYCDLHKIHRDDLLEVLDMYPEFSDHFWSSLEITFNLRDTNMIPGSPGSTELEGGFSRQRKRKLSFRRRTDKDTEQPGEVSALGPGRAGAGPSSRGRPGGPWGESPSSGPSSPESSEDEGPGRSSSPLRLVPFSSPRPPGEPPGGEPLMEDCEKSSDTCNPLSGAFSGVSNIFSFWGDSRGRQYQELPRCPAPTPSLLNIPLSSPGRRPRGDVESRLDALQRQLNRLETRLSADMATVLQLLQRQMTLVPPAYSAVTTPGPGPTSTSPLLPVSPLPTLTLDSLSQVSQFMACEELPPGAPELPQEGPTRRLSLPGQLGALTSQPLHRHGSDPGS
For `COc1c(F)cc(NCc2ccc3cc(-c4nn[nH]n4)oc3c2)cc1Br` [Example 1], the “% change@TL7 (*@3.3 uM)” value was 166* %. `CCOc1c(F)cc(NCc2ccc3cc(-c4nn[nH]n4)oc3c2)cc1Br` [Example 2] was tested, and the “% change@TL7 (*@3.3 uM)” value was 126* %. In the case of `FC(F)(F)c1ccc(NCc2ccc3cc(-c4nn[nH]n4)oc3c2)cc1Br` [Example 3], the “% change@TL7 (*@3.3 uM)” value is reported as 121* %. With `FC(F)Oc1c(Br)cc(NCc2ccc3cc(-c4nn[nH]n4)oc3c2)cc1Br` [Example 4] the “% change@TL7 (*@3.3 uM)” value was 155* %.

Same assay, conditions: increase of hERG tail current amplitude at 7 second (TL7); 10 uM; hERG stably expressed in CHO cells
With `CCOc1c(Cl)cc(NCc2cc3oc(-c4nnn[nH]4)cc3cc2Cl)cc1Cl` [Example 5] the “% change@TL7@10 uM” value was 146%. With `FC(F)(F)Oc1ccc(NCc2cc3oc(-c4nnn[nH]4)cc3cc2Cl)cc1C(F)(F)F` [Example 6] the “% change@TL7@10 uM” value was 264%. For `FC(F)(F)COc1ccc(NCc2cc3oc(-c4nnn[nH]4)cc3cc2Cl)cc1Cl` [Example 8], the “% change@TL7@10 uM” value was 128%. With `Fc1ccc(NCc2cc3oc(-c4nnn[nH]4)cc3cc2Cl)cc1OC(F)(F)F` [Example 9] the “% change@TL7@10 uM” value was 78%. `CCOc1ccc(NCc2cc3oc(-c4nnn[nH]4)cc3cc2Cl)cc1C(F)(F)F` [Example 10] was tested, and the “% change@TL7@10 uM” value was 285%. In the case of `C=C(C)c1cc(NCc2ccc3cc(-c4nn[nH]n4)oc3c2)ccc1OC(F)(F)F` [Example 11], the “% change@TL7@10 uM” value is reported as 129%. `CCCc1ccc(NCc2cc3oc(-c4nnn[nH]4)cc3cc2Cl)cc1Cl` [Example 12] was tested, and the “% change@TL7@10 uM” value was 85%. With `FC(F)(F)Oc1cc(NCc2cc3oc(-c4nnn[nH]4)cc3cc2Cl)ccc1Cl` [Example 13] the “% change@TL7@10 uM” value was 39%. For `FC(F)(F)c1ccc(NCc2cc3oc(-c4nnn[nH]4)cc3cc2Cl)cc1C(F)(F)F` [Example 14], the “% change@TL7@10 uM” value was 196%. For `Clc1cc2cc(-c3nnn[nH]3)oc2cc1CNc1cc(Cl)c(Cl)c(Cl)c1` [Example 15], the “% change@TL7@10 uM” value was 162%. In the case of `CCCc1ccc(NCc2ccc3cc(-c4nnn[nH]4)oc3c2)cc1C(F)(F)F` [Example 16], the “% change@TL7@10 uM” value is reported as 521%. `FC(F)Oc1ccc(NCc2ccc3cc(-c4nn[nH]n4)oc3c2)cc1Cl` [Example 17] was tested, and the “% change@TL7@10 uM” value was 477%. In the case of `CC(C)Oc1ccc(NCc2cc3oc(-c4nnn[nH]4)cc3cc2Cl)cc1C(F)(F)F` [Example 18], the “% change@TL7@10 uM” value is reported as 409%. For `Clc1cc(NCc2ccc3cc(-c4nn[nH]n4)oc3c2)cc(Cl)c1Cl` [Example 19], the “% change@TL7@10 uM” value was 394%. `FC(F)(F)Sc1ccc(NCc2ccc3cc(-c4nn[nH]n4)oc3c2)cc1Cl` [Example 20] was tested, and the “% change@TL7@10 uM” value was 340%. With `Cc1cc(NCc2ccc3cc(-c4nn[nH]n4)oc3c2)ccc1OC(F)(F)F` [Example 21] the “% change@TL7@10 uM” value was 333%. `FC(F)(F)COc1ccc(NCc2cc3oc(-c4nnn[nH]4)cc3cc2Cl)cc1C(F)(F)F` [Example 22] was tested, and the “% change@TL7@10 uM” value was 328%. `FC(F)(F)Oc1ccc(NCc2ccc3cc(-c4nn[nH]n4)oc3c2)cc1C(F)(F)F` [Example 23] was tested, and the “% change@TL7@10 uM” value was 290%. With `FC(F)Oc1ccc(NCc2cc3oc(-c4nnn[nH]4)cc3cc2Cl)cc1C(F)(F)F` [Example 25] the “% change@TL7@10 uM” value was 269%. `CSc1ccc(NCc2ccc3cc(-c4nn[nH]n4)oc3c2)cc1C(F)(F)F` [Example 26] was tested, and the “% change@TL7@10 uM” value was 267%. `FC(F)(F)COc1ccc(NCc2ccc3cc(-c4nn[nH]n4)oc3c2)cc1C(F)(F)F` [Example 27] was tested, and the “% change@TL7@10 uM” value was 261%. For `CSc1cccc(NCc2ccc3cc(-c4nn[nH]n4)oc3c2)c1` [Example 28], the “% change@TL7@10 uM” value was 260%. `N#CCOc1ccc(NCc2cc3oc(-c4nnn[nH]4)cc3cc2Cl)cc1C(F)(F)F` [Example 29] was tested, and the “% change@TL7@10 uM” value was 258%. `O=C(c1ccc(NCc2ccc3cc(-c4nnn[nH]4)oc3c2)cc1)C(F)(F)F` [Example 30] was tested, and the “% change@TL7@10 uM” value was 228%. For `CCCc1ccc(NCc2cc3oc(-c4nnn[nH]4)cc3cc2Cl)cc1C(F)(F)F` [Example 31], the “% change@TL7@10 uM” value was 218%. In the case of `Clc1ccc(NCc2ccc3cc(-c4nn[nH]n4)oc3c2)cc1` [Example 33], the “% change@TL7@10 uM” value is reported as 192%. `CCCc1ccc(NCc2cc3oc(-c4nnn[nH]4)cc3cc2Cl)cc1Br` [Example 34] was tested, and the “% change@TL7@10 uM” value was 191%. In the case of `Fc1cc(NCc2ccc3cc(-c4nn[nH]n4)oc3c2)cc(Br)c1F` [Example 35], the “% change@TL7@10 uM” value is reported as 180%. In the case of `FC(F)(F)Oc1ccc(NCc2cc3oc(-c4nnn[nH]4)cc3cc2Cl)cc1Br` [Example 36], the “% change@TL7@10 uM” value is reported as 174%. `FC(F)(F)Oc1ccc(NCc2ccc3cc(-c4nn[nH]n4)oc3c2)cc1Br` [Example 37, N-((2-(2H-tetrazol-5-yl)benzofuran-6-yl)methyl)-3-bromo-4-(trifluoromethoxy)aniline] was tested, and the “% change@TL7@10 uM” value was 170%. In the case of `FC(F)(F)Oc1ccc(NCc2ccc3c(C(F)(F)F)c(-c4nnn[nH]4)oc3c2)cc1C(F)(F)F` [Example 38], the “% change@TL7@10 uM” value is reported as 164%. With `FC(F)(F)c1cc(NCc2ccc3cc(-c4nn[nH]n4)oc3c2)ccc1Br` [Example 39] the “% change@TL7@10 uM” value was 164%. `FC1(F)Oc2ccc(NCc3ccc4cc(-c5nn[nH]n5)oc4c3)cc2O1` [Example 40] was tested, and the “% change@TL7@10 uM” value was 161%. With `FC(F)(F)Oc1ccc(NCc2ccc3cc(-c4nn[nH]n4)oc3c2)cc1OC(F)(F)F` [Example 41] the “% change@TL7@10 uM” value was 160%. `CCCc1ccc(NCc2ccc3cc(-c4nnn[nH]4)oc3c2)cc1Br` [Example 42] was tested, and the “% change@TL7@10 uM” value was 159%. In the case of `Fc1cc(NCc2ccc3cc(-c4nn[nH]n4)oc3c2)ccc1OC(F)(F)F` [Example 43], the “% change@TL7@10 uM” value is reported as 148%. `FC(F)(F)COc1ccc(NCc2ccc3cc(-c4nn[nH]n4)oc3c2)cc1Cl` [Example 44] was tested, and the “% change@TL7@10 uM” value was 146%. For `Clc1cc(NNCc2ccc3cc(-c4nn[nH]n4)oc3c2)cc(Cl)c1Cl` [Example 45], the “% change@TL7@10 uM” value was 145%. In the case of `FC(F)(F)Oc1ccc(NCc2ccc3cc(-c4nn[nH]n4)oc3c2)cc1Cl` [Example 46], the “% change@TL7@10 uM” value is reported as 139%. For `FC(F)(F)Oc1ccc(NCc2ccc3c(C(F)(F)F)c(-c4nnn[nH]4)oc3c2)cc1Br` [Example 47], the “% change@TL7@10 uM” value was 131%. In the case of `FC(F)(F)Oc1cc(NCc2ccc3cc(-c4nn[nH]n4)oc3c2)ccc1Br` [Example 48], the “% change@TL7@10 uM” value is reported as 123%. For `CCOc1c(Cl)cc(NCc2ccc3c(C(F)(F)F)c(-c4nnn[nH]4)oc3c2)cc1Cl` [Example 49], the “% change@TL7@10 uM” value was 106%. For `CCCc1ccc(NCc2ccc3c(C)c(-c4nnn[nH]4)oc3c2)cc1C(F)(F)F` [Example 51], the “% change@TL7@10 uM” value was 99%. In the case of `FC(F)(F)c1ccc(NCc2ccc3cc(-c4nn[nH]n4)oc3c2)cc1C(F)(F)F` [Example 52], the “% change@TL7@10 uM” value is reported as 95%. With `Cc1c(-c2nnn[nH]2)oc2cc(CNc3ccc(OC(F)(F)F)c(Br)c3)ccc12` [Example 53] the “% change@TL7@10 uM” value was 95%. In the case of `FC(F)(F)Oc1ccc(NCc2ccc3c(C(F)(F)F)c(-c4nnn[nH]4)oc3c2)cc1Cl` [Example 54], the “% change@TL7@10 uM” value is reported as 94%. With `CCCc1ccc(NCc2ccc3c(C(F)(F)F)c(-c4nnn[nH]4)oc3c2)cc1C(F)(F)F` [Example 55] the “% change@TL7@10 uM” value was 90%. `CCOc1ccc(NCc2ccc3c(C(F)(F)F)c(-c4nnn[nH]4)oc3c2)cc1C(F)(F)F` [Example 56] was tested, and the “% change@TL7@10 uM” value was 88%. `CC(C)Oc1ccc(NCc2ccc3c(C(F)(F)F)c(-c4nnn[nH]4)oc3c2)cc1C(F)(F)F` [Example 57] was tested, and the “% change@TL7@10 uM” value was 76%. In the case of `Fc1ccc(NCc2ccc3cc(-c4nn[nH]n4)oc3c2)cc1CC(F)(F)F` [Example 58], the “% change@TL7@10 uM” value is reported as 71%. In the case of `Brc1cccc(NCc2ccc3cc(-c4nn[nH]n4)oc3c2)c1` [Example 59], the “% change@TL7@10 uM” value is reported as 61%. In the case of `FC(F)Oc1ccc(NCc2ccc3c(C(F)(F)F)c(-c4nnn[nH]4)oc3c2)cc1C(F)(F)F` [Example 60], the “% change@TL7@10 uM” value is reported as 58%. With `FC(F)(F)c1ccc(NCc2ccc3c(C(F)(F)F)c(-c4nnn[nH]4)oc3c2)cc1Cl` [Example 61] the “% change@TL7@10 uM” value was 47%. For `COc1cc(NCc2ccc3cc(-c4nn[nH]n4)oc3c2)cc(OC)c1OC` [Example 62], the “% change@TL7@10 uM” value was 43%. `FC(F)(F)Oc1ccc(NCc2ccc3cc(-c4nn[nH]n4)oc3c2)cc1` [Example 63] was tested, and the “% change@TL7@10 uM” value was 34%. For `FC(F)(F)Sc1ccc(NCc2ccc3oc(-c4nnn[nH]4)cc3c2)cc1Cl` [Example 64], the “% change@TL7@10 uM” value was 348%. `FC(F)(F)Oc1ccc(NCc2ccc3oc(-c4nnn[nH]4)cc3c2)cc1Cl` [Example 65] was tested, and the “% change@TL7@10 uM” value was 284%. With `CCCc1ccc(NCc2ccc3oc(-c4nnn[nH]4)cc3c2)cc1C(F)(F)F` [Example 66] the “% change@TL7@10 uM” value was 261%. `FC1(F)Oc2ccc(NCc3ccc4oc(-c5nnn[nH]5)cc4c3)cc2O1` [Example 67] was tested, and the “% change@TL7@10 uM” value was 247%. With `CCCc1cc(NCc2ccc3oc(-c4nnn[nH]4)cc3c2)ccc1Cl` [Example 68] the “% change@TL7@10 uM” value was 224%. For `CCCc1c(C)cc(NCc2ccc3oc(-c4nnn[nH]4)cc3c2)cc1Cl` [Example 69], the “% change@TL7@10 uM” value was 221%. `Cc1c(-c2nnn[nH]2)oc2ccc(CNc3ccc(SC(F)(F)F)c(Cl)c3)cc12` [Example 70] was tested, and the “% change@TL7@10 uM” value was 200%. For `CCCc1ccc(NCc2ccc3oc(-c4nnn[nH]4)cc3c2)cc1Cl` [Example 71], the “% change@TL7@10 uM” value was 193%. For `Fc1ccc(NCc2ccc3oc(-c4nnn[nH]4)cc3c2)cc1OC(F)(F)F` [Example 72], the “% change@TL7@10 uM” value was 176%. In the case of `CC(Nc1cc(Cl)c(Cl)c(Cl)c1)c1ccc2oc(-c3nnn[nH]3)cc2c1` (centres unmarked) [Example 73], the “% change@TL7@10 uM” value is reported as 132%. `CC(Nc1ccc(SC(F)(F)F)c(Cl)c1)c1ccc2oc(-c3nnn[nH]3)cc2c1` (centres unmarked) [Example 74] was tested, and the “% change@TL7@10 uM” value was 124%. In the case of `FC(F)(F)Oc1cc(Cl)cc(NCc2ccc3oc(-c4nnn[nH]4)cc3c2)c1` [Example 75], the “% change@TL7@10 uM” value is reported as 123%. For `CCCc1ccc(NCc2ccc3oc(-c4nnn[nH]4)cc3c2)cc1OC(F)(F)F` [Example 76], the “% change@TL7@10 uM” value was 120%. For `CC(Nc1ccc(OC(F)(F)F)c(Cl)c1)c1ccc2oc(-c3nnn[nH]3)cc2c1` (centres unmarked) [Example 77], the “% change@TL7@10 uM” value was 118%. With `CCc1ccc(NCc2ccc3oc(-c4nnn[nH]4)cc3c2)cc1C(F)(F)F` [Example 78] the “% change@TL7@10 uM” value was 108%. With `CCCc1ccc(NCc2ccc3oc(-c4nnn[nH]4)cc3c2)cc1F` [Example 79] the “% change@TL7@10 uM” value was 101%. With `CCCc1ccc(NCc2ccc3oc(-c4nnn[nH]4)cc3c2)cc1C` [Example 80] the “% change@TL7@10 uM” value was 83%. In the case of `CCCc1ccc(NC(C)c2ccc3oc(-c4nnn[nH]4)cc3c2)cc1C(F)(F)F` (centres unmarked) [Example 81], the “% change@TL7@10 uM” value is reported as 74%.

Source: patent publication US9255093B2, “Polycyclic HERG activators” (NOVARTIS AG, priority 2014, dated 2016)
